# Results published in patent US7396837B2, “Antitumoral analogs of lamellarins” (Pharma Mar, S.A.U., priority 2002, dated 2008).
# Assays:
# Format in all cases: cell-based
# [1] = test system: K-562; assay: SRB colorimetric cell growth inhibition assay, K-562; conditions: Homo sapiens
# Text: (§1) The finality of these assays is to interrupt the growth of an “in vitro” tumor cell culture by means a continued exhibition of the cells to the sample to be testing.
# (§2) A colorimetric type of assay, using sulforhodamine B (SRB) reaction has been adapted for a quantitative measurement of cell growth and viability (following the technique described by P. A. Skehan, et al., J. Natl. Cancer Inst. 1990, 82, 1107-1112).
# (§3) This form of assay employs 96 well cell culture microplates of 9 mm diameter (T. Mosmann et al., J. of Immunological Methods 1983, 65, 55-63; G. T. Faircloth et al., J. of Tissue and Culture Methods 1988, 11, 201-205).
# (§4) Most of the cell lines are obtained from American Type Culture Collection (ATCC) derived from different human cancer types.
# (§5) The values for mean +/− SD of data from triplicate wells are calculated. Some parameters for cellular responses can be calculated: GI=growth inhibition, TGI=total growth inhibition (cytostatic effect) and LC=cell killing (cytotoxic effect).
# [2] = test system: A-549; assay: SRB colorimetric cell growth inhibition assay, A-549; conditions: Homo sapiens
# How it was run: (§6)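 Human tumour cells continuously exposed to compound in 96-well culture; growth and viability quantified colorimetrically by sulforhodamine B staining. Mean ± SD from triplicate wells; GI (growth inhibition), TGI (total growth inhibition, cytostatic) and LC (cell killing, cytotoxic) parameters derived.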
# [3] = test system: SK-MEL-28; assay: SRB colorimetric cell growth inhibition assay, SK-MEL-28; conditions: Homo sapiens
# How it was run: as §6
# [4] = test system: HT-29; assay: SRB colorimetric cell growth inhibition assay, HT-29; conditions: Homo sapiens
# How it was run: as §6
# [5] = test system: LoVo; assay: SRB colorimetric cell growth inhibition assay, LoVo; conditions: Homo sapiens, LoVo
# How it was run: as §6
# [6] = test system: LoVo-Dox; assay: SRB colorimetric cell growth inhibition assay, LoVo-Dox (MDR); conditions: Homo sapiens
# How it was run: as §6
# [7] = test system: DU-145; assay: SRB colorimetric cell growth inhibition assay, DU-145; conditions: Homo sapiens
# How it was run: as §6
# [8] = test system: LNCaP; assay: SRB colorimetric cell growth inhibition assay, LNCaP; conditions: Homo sapiens, LNCaP
# Text: as §1, §2, §3, §4, §5
# [9] = test system: SK-BR-3; assay: SRB colorimetric cell growth inhibition assay, SK-BR-3; conditions: Homo sapiens
# How it was run: as §6
# [10] = test system: IGROV; assay: SRB colorimetric cell growth inhibition assay, IGROV; conditions: Homo sapiens, IGROV
# How it was run: as §6
# [11] = test system: IGROV-ET; assay: SRB colorimetric cell growth inhibition assay, IGROV-ET (ET-743 resistant); conditions: Homo sapiens
# How it was run: as §6
# [12] = test system: HeLa; assay: SRB colorimetric cell growth inhibition assay, HeLa; conditions: Homo sapiens, HeLa
# How it was run: as §6
# [13] = test system: HeLa-APL; assay: SRB colorimetric cell growth inhibition assay, HeLa-APL (aplidine resistant); conditions: Homo sapiens
# How it was run: as §6
# [14] = test system: PANC-1; assay: SRB colorimetric cell growth inhibition assay, PANC-1; conditions: Homo sapiens
# How it was run: as §6
compound,measurement,setting,value
COc1cc(-c2c3c4cc(OC)c(OC(=O)[C@H](C)NC(=O)[C@H](C)NC(=O)OC(C)(C)C)cc4oc(=O)c3n3ccc4c(OC(=O)[C@H](C)NC(=O)[C@H](C)NC(=O)OC(C)(C)C)c(OC)c(OC)cc4c23)ccc1OC(=O)[C@H](C)NC(=O)[C@H](C)NC(=O)OC(C)(C)C [Compound 6],GI50,"[1]; K562, read-out: GI50 K-562",0.482 µM
same,CC50,"[1]; K562, read-out: LC50 K-562",7.96 µM
same,IC (TGI),"[1]; K562, read-out: TGI K-562",5.38 µM
same,GI50,"[2]; A549, read-out: GI50 A-549",0.497 µM
same,CC50,"[2]; A549, read-out: LC50 A-549",7.96 µM
same,IC (TGI),"[2]; A549, read-out: TGI A-549",7.96 µM
same,GI50,"[3]; SK-MEL-28, read-out: GI50 MEL-28",0.386 µM
same,CC50,"[3]; SK-MEL-28, read-out: LC50 MEL-28",7.96 µM
same,IC (TGI),"[3]; SK-MEL-28, read-out: TGI MEL-28",1.74 µM
same,GI50,"[4]; HT-29, read-out: GI50 HT-29",7.96 µM
same,CC50,"[4]; HT-29, read-out: LC50 HT-29",7.96 µM
same,IC (TGI),"[4]; HT-29, read-out: TGI HT-29",7.96 µM
same,GI50,[5]; read-out: GI50 LOVO,2.79 µM
same,CC50,[5]; read-out: LC50 LOVO,7.96 µM
same,IC (TGI),[5]; read-out: TGI LOVO,7.96 µM
same,GI50,[6]; read-out: GI50 LOVO-DOX,3.84 µM
same,CC50,[6]; read-out: LC50 LOVO-DOX,7.96 µM
same,IC (TGI),[6]; read-out: TGI LOVO-DOX,7.96 µM
same,GI50,"[7]; DU-145, read-out: GI50 DU-145",0.355 µM
same,CC50,"[7]; DU-145, read-out: LC50 DU-145",7.96 µM
same,IC (TGI),"[7]; DU-145, read-out: TGI DU-145",1.46 µM
same,GI50,[8]; read-out: GI50 LN-caP,0.578 µM
same,CC50,[8]; read-out: LC50 LN-caP,7.96 µM
same,IC (TGI),[8]; read-out: TGI LN-caP,7.96 µM
same,GI50,"[9]; SK-BR-3, read-out: GI50 SK-BR-3",0.548 µM
same,CC50,"[9]; SK-BR-3, read-out: LC50 SK-BR-3",7.96 µM
same,IC (TGI),"[9]; SK-BR-3, read-out: TGI SK-BR-3",2.56 µM
same,GI50,[10]; read-out: GI50 IGROV,0.963 µM
same,CC50,[10]; read-out: LC50 IGROV,7.96 µM
same,IC (TGI),[10]; read-out: TGI IGROV,7.96 µM
same,GI50,[11]; read-out: GI50 IGROV-ET,1.39 µM
same,CC50,[11]; read-out: LC50 IGROV-ET,7.96 µM
same,IC (TGI),[11]; read-out: TGI IGROV-ET,7.96 µM
same,GI50,[12]; read-out: GI50 HELA,0.584 µM
same,CC50,[12]; read-out: LC50 HELA,7.96 µM
same,IC (TGI),[12]; read-out: TGI HELA,7.96 µM
same,GI50,[13]; read-out: GI50 HELA-APL,3.41 µM
same,CC50,[13]; read-out: LC50 HELA-APL,7.96 µM
same,IC (TGI),[13]; read-out: TGI HELA-APL,7.96 µM
same,GI50,"[14]; PANC-1, read-out: GI50 PANC-1",2.46 µM
same,CC50,"[14]; PANC-1, read-out: LC50 PANC-1",7.96 µM
same,IC (TGI),"[14]; PANC-1, read-out: TGI PANC-1",7.96 µM
